Measurements reported in US5925333A, “Methods for modulation of lipid uptake” (Massachusetts Institute of Technology, priority 1995, dated 1999).

How the values were obtained:
[1] = target: murine scavenger receptor protein type BI (mSR-BI) (murine)
[2] = target: murine scavenger receptor protein type BI (mSR-BI) (murine); remark: listed apart in the source
liver cells = test: Uptake of lipid from fluorescently labeled HDL injected into estrogen-treated rats, liver; type: in vivo, rat; conditions: fluorescently labeled HDL injected into estrogen-treated vs sham-injected rats
adrenal tissues = test: Uptake of lipid from fluorescently labeled HDL injected into estrogen-treated rats, adrenal; type: in vivo, rat; conditions: fluorescently labeled HDL injected into estrogen-treated vs sham-injected rats
SR-BI = test: Immunoblot of SR-BI expression in tissues of estrogen-treated rats; type: in vivo, rat; conditions: 5 mg/kg subcutaneous for five consecutive days
Experimental: To determine the size of mSR-BI and its tissue distribution, a rabbit anti-mSR-BI polyclonal antibody was prepared by immunization of a 16 amino acid peptide (residues 495 to 509 from the predicted protein sequence of mSR-BI plus an additional N-terminal cysteine) coupled to keyhole limpet hemocyanin. This is referred to as anti-mSR-BI^495 antiserum. The antiserum was used for immunoblot analysis of cultured cells and murine tissues.
Post-nuclear cell extracts from ldlA and ldlA[mSR-BI] cells and membranes (post-nuclear 100,000×g pellets) from murine tissues were isolated, reduced, and separated by 6.5% SDS-polyacrylamide gel electrophoresis (50 μg protein/lane), transferred to nitrocellulose and probed with a primary anti-mSR-BI^495 antipeptide antibody (rabbit IgG fraction, 1:5000 dilution) and developed using a horseradish peroxidase labeled second antibody and ECL kit (5 min exposure, Amersham). Ponceau S staining was used as a control for gel loading and transfer.
Tissues of estrogen-treated rats were screened for expression of SR-BI as described above following treatment of rats with 17-α-ethylenyl estradiol (estrogen). The rats were treated for five consecutive days with subcutaneous injections of 5 mg/kg 17-α-ethylenyl estradiol in propylene glycol or with propylene glycol alone (sham-injected).

LDL receptor = test: Immunoblot of LDL receptor expression in estrogen-treated rats; type: in vivo, rat; conditions: 5 mg/kg subcutaneous for five consecutive days, vs sham, liver

| total cellular cholesterol (free and esterified) after incubation with unlabeled HDL (20 µg protein/ml, 5 hrs) [1] | cell association of the lipid-labeled component of HDL (3H-cholesteryl oleate or DiI) [2] | Substance | Uptake of HDL-derived lipids into liver cells (liver cells) | Uptake of lipid into adrenal tissues (adrenal tissues) | SR-BI expression in liver (SR-BI; vs sham, liver) | SR-BI levels in tissues showing trace signal (SR-BI; vs sham, lung, testes and skin) | SR-BI expression in rat adrenal membranes (SR-BI; vs sham-injected controls, adrenal membranes) | LDL receptor expression (LDL receptor) |
| --- | --- | --- | --- | --- | --- | --- | --- | --- |
| 20 % increase | 18% | high density lipoprotein (HDL) prepared from human plasma (from UniProt P02647) | – | – | – | – | – | – |
| – | – | 17-α-ethylenyl estradiol [estrogen] | no similar uptake | dramatically increased | dramatically downregulated | no change | upregulation | tremendous upregulation |
